According to patent US10308639B2, “Phosphatidylinositol 3-kinase inhibitors” (Gilead Sciences, Inc., priority 2014, dated 2019):
Like-named read-outs stand apart in the source and are kept apart here.

Assays:
Type in all cases: biochemical
PI3Kβ = target: T1, PI3Kβ (Homo sapiens, UniProt P42338); experiment: TR-FRET enzymatic activity assay, PI3Kβ; conditions: Table 2; TR-FRET, 2x Km ATP, 30 minutes at 25° C.
T1 construct: made in house

PI3Kδ = target: T2, PI3Kδ (Homo sapiens, UniProt O00329); experiment: TR-FRET enzymatic activity assay, PI3Kδ
T2 construct: made in house
T2 sequence (O00329 whole entry): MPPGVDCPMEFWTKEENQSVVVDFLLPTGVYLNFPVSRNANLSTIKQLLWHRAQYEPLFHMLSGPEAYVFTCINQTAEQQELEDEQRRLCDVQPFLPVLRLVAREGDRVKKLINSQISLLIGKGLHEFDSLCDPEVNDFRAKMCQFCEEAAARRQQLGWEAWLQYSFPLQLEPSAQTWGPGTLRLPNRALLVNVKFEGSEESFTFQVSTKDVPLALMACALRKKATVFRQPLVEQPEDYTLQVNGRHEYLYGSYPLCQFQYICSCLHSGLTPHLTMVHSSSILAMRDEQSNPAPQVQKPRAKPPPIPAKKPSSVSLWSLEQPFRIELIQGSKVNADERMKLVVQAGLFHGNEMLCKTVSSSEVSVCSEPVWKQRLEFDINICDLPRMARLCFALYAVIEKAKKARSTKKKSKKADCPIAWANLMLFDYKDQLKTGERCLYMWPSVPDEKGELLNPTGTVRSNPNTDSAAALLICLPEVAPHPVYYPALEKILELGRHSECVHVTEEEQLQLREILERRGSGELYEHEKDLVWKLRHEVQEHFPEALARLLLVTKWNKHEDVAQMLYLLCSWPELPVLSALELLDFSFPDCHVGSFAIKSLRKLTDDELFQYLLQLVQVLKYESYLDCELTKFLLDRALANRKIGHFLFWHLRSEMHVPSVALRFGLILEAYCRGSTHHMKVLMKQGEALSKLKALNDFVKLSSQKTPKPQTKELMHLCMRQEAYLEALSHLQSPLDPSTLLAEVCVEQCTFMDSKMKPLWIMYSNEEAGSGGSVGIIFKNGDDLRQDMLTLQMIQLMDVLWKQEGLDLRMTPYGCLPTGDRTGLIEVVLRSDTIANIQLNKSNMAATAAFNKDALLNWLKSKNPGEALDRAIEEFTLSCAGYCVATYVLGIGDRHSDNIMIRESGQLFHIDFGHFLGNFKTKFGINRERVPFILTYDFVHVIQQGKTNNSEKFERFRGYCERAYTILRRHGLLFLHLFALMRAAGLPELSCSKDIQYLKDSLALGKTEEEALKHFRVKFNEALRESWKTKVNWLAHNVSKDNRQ
T2 sequence (P27986 whole entry partner): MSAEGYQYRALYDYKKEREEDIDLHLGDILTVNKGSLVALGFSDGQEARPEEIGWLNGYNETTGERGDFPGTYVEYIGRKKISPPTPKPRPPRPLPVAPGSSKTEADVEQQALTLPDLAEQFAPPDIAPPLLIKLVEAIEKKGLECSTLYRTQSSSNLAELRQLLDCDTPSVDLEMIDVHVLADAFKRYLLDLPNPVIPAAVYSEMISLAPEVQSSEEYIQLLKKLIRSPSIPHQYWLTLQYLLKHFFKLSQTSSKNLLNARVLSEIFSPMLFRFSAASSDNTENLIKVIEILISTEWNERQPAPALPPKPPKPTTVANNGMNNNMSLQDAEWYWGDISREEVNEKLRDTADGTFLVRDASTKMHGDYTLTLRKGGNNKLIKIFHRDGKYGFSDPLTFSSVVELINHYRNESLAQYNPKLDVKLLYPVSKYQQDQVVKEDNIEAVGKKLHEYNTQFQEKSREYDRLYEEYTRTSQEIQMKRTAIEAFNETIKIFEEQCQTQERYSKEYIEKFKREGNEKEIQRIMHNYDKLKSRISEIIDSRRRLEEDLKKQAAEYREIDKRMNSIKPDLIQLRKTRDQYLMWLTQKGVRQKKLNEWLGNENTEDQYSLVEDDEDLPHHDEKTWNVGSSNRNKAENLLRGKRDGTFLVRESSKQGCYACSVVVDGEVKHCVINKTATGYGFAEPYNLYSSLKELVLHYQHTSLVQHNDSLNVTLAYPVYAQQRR

PI3Kγ = target: T3, PI3Kγ (Homo sapiens, UniProt P48736); experiment: TR-FRET enzymatic activity assay, PI3Kγ; conditions: read-out: PI3Kγ IC50
T3 construct: made in house
T3 sequence (P48736 whole entry): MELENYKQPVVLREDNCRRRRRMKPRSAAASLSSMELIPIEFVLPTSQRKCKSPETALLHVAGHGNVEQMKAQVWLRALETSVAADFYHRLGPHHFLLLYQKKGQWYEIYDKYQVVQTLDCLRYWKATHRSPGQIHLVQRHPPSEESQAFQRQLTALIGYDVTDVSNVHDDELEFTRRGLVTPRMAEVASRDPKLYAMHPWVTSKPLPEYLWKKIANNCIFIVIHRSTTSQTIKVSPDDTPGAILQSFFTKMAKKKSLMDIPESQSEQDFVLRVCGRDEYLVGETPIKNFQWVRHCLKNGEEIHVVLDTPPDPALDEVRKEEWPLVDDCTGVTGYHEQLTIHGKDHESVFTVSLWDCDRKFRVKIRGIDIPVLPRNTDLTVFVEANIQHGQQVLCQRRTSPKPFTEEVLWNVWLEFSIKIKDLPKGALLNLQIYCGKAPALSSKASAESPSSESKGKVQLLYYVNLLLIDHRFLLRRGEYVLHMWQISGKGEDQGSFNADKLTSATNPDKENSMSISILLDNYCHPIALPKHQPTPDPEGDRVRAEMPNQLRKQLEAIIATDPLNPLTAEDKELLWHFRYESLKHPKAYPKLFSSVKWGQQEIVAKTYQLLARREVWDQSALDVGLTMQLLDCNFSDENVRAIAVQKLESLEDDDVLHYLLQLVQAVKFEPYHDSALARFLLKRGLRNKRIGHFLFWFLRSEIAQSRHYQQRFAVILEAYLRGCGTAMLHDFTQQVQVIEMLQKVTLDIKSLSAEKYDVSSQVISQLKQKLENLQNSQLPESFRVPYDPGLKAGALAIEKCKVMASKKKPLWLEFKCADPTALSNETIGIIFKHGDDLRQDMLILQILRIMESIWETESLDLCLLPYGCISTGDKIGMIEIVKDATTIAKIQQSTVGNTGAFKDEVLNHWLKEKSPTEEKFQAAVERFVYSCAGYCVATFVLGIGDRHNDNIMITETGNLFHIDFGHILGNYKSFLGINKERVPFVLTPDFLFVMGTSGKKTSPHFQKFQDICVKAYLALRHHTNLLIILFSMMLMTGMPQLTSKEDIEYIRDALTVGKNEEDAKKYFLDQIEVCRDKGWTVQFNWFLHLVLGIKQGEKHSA
Outline: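 Read-out is TR-FRET. The assay scores enzymatic activity of the individual PI3K isoforms in the presence of compound.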

[1] = Table 2, TR-FRET, 2x Km ATP, 30 minutes at 25° C.

T1 sequence (P42338 whole entry): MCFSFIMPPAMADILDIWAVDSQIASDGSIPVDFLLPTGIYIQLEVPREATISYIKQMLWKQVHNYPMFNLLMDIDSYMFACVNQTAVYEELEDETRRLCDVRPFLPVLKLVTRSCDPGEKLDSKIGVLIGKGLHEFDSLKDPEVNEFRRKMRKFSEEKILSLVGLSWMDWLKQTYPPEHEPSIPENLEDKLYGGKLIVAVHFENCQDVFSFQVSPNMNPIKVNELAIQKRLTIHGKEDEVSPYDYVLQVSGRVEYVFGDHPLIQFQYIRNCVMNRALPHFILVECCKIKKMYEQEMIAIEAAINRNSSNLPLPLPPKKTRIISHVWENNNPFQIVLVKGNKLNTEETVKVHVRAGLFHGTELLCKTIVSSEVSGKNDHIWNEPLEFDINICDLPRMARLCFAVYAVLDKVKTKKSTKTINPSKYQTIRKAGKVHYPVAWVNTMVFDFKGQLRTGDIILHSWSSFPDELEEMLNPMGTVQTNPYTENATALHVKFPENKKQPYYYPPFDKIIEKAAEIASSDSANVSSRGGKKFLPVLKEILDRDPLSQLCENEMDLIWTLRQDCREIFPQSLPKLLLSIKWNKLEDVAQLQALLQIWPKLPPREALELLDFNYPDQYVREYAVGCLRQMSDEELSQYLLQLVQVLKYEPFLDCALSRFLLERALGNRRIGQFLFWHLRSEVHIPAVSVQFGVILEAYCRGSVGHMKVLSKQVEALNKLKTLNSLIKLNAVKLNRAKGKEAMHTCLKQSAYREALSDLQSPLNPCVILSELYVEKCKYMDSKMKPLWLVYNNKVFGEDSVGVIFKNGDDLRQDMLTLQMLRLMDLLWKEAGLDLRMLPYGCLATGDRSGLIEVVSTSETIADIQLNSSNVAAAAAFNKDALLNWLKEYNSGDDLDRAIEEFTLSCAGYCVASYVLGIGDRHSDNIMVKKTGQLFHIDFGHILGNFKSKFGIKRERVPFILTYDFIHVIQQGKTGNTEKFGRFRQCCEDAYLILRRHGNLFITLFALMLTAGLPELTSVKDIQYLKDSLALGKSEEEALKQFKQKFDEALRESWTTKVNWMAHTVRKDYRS
T1 sequence (P27986 whole entry partner): as the sequence (P27986 whole entry partner) above

SMILES | IC50 (PI3Kβ) [µM] | IC50 (PI3Kδ; [1]) [µM] | IC50 (PI3Kγ) [µM] | IC50 (PI3Kγ; [1]) [µM] | IC50 (PI3Kδ) [µM]
CC[C@H](Nc1ncnc2sccc12)c1nc2c(Cl)ccc(Cl)c2c(=O)n1-c1cc[nH]n1 [Compound 54, (S)-5,8-dichloro-3-(1H-pyrazol-3-yl)-2-(1-(thieno[2,3-d]pyrimidin-4-ylamino)propyl)quinazolin-4(3H)-one] | 0.24 | 0.018 | > 10 | – | –
CC[C@H](Nc1nc(F)nc2[nH]cnc12)c1nc2c(Cl)ccc(Cl)c2c(=O)n1-c1cn[nH]c1 [Compound 55, (S)-5,8-dichloro-2-(1-((2-fluoro-9H-purin-6-yl)amino)propyl)-3-(1H-pyrazol-4-yl)quinazolin-4(3H)-one] | 0.57 | 0.065 | > 10 | – | –
CC[C@H](Nc1ncnc2sccc12)c1nc2c(Cl)ccc(Cl)c2c(=O)n1-c1cn[nH]c1 [Compound 56, (S)-5,8-dichloro-3-(1H-pyrazol-4-yl)-2-(1-(thieno[2,3-d]pyrimidin-4-ylamino)propyl)quinazolin-4(3H)-one] | 1.3 | 0.088 | > 10 | – | –
CC[C@H](Nc1ncnc2[nH]cnc12)c1nc2c(Cl)ccc(Cl)c2c(=O)n1-c1cn[nH]c1 [Compound 57, (S)-2-(1-((9H-purin-6-yl)amino)propyl)-5,8-dichloro-3-(1H-pyrazol-4-yl)quinazolin-4(3H)-one] | 0.38 | 0.029 | > 10 | – | –
CC[C@H](Nc1ncnc2[nH]cc(F)c12)c1nc2c(Cl)ccc(Cl)c2c(=O)n1-c1cn[nH]c1 [Compound 58, (S)-5,8-dichloro-2-(1-((5-fluoro-7H-pyrrolo[2,3-d]pyrimidin-4-yl)amino)propyl)-3-(1H-pyrazol-4-yl)quinazolin-4(3H)-one] | 0.32 | 0.014 | – | 5.9 | –
C[C@H](Nc1ncnc2sccc12)c1nc2cccc(Cl)c2c(=O)n1-c1cc[nH]n1 [Compound 60, (S)-5-chloro-3-(1H-pyrazol-3-yl)-2-(1-(thieno[2,3-d]pyrimidin-4-ylamino)ethyl)quinazolin-4(3H)-one] | 0.043 | 0.002 | > 10 | – | –
C[C@H](Nc1ncnc2ccoc12)c1nc2cccc(Cl)c2c(=O)n1-c1cc[nH]n1 [Compound 61, (S)-5-chloro-2-(1-(furo[3,2-d]pyrimidin-4-ylamino)ethyl)-3-(1H-pyrazol-3-yl)quinazolin-4(3H)-one] | 0.02 | 0.003 | – | 8.1 | –
CC[C@H](Nc1ncnc2ccoc12)c1nc2c(Cl)ccc(Cl)c2c(=O)n1-c1cc[nH]n1 [Compound 62, (S)-5,8-dichloro-2-(1-(furo[3,2-d]pyrimidin-4-ylamino)propyl)-3-(1H-pyrazol-3-yl)quinazolin-4(3H)-one] | 0.12 | 0.009 | > 10 | – | –
CC[C@H](Nc1nc(N)nc(N)c1Cl)c1nc2c(Cl)ccc(Cl)c2c(=O)n1-c1cc[nH]n1 [Compound 66, (S)-5,8-dichloro-2-(1-((2,6-diamino-5-chloropyrimidin-4-yl)amino)propyl)-3-(1H-pyrazol-3-yl)quinazolin-4(3H)-one] | 0.15 | 0.036 | > 10 | – | –
C[C@H](Nc1nc(N)nc(N)c1Cl)c1nc2c(F)ccc(Cl)c2c(=O)n1-c1cc[nH]n1 [Compound 67, (S)-5-chloro-2-(1-((2,6-diamino-5-chloropyrimidin-4-yl)amino)ethyl)-8-fluoro-3-(1H-pyrazol-3-yl)quinazolin-4(3H)-one] | 0.003 | 0.003 | – | 2.8 | –
C[C@H](Nc1nc(N)nc(N)c1Cl)c1nc2c(Cl)ccc(Cl)c2c(=O)n1-c1cc[nH]n1 [Compound 69, (S)-5,8-dichloro-2-(1-((2,6-diamino-5-chloropyrimidin-4-yl)amino)ethyl)-3-(1H-pyrazol-3-yl)quinazolin-4(3H)-one] | 0.013 | 0.006 | > 10 | – | –
CC[C@H](Nc1ncnc2scnc12)c1nc2cccc(Cl)c2c(=O)n1-c1n[nH]cc1Br [Compound 77, (S)-3-(4-bromo-1H-pyrazol-3-yl)-5-chloro-2-(1-(thiazolo[5,4-d]pyrimidin-7-ylamino)propyl)quinazolin-4(3H)-one] | 0.14 | 0.005 | – | 1.7 | –
CC[C@H](Nc1nc(N)nc(N)c1Cl)c1nc2c(C#N)cccc2c(=O)n1-c1cc[nH]n1 [Compound 78, (S)-2-(1-((2,6-diamino-5-chloropyrimidin-4-yl)amino)propyl)-4-oxo-3-(1H-pyrazol-3-yl)-3,4-dihydroquinazoline-8-carbonitrile] | 0.19 | 0.053 | > 10 | – | –
CC[C@H](Nc1nc(N)nc2[nH]nc(Br)c12)c1nc2cccc(C#N)c2c(=O)n1-c1cn[nH]c1 [Compound 79, (S)-2-(1-((6-amino-3-bromo-1H-pyrazolo[3,4-d]pyrimidin-4-yl)amino)propyl)-4-oxo-3-(1H-pyrazol-4-yl)-3,4-dihydroquinazoline-5-carbonitrile] | 0.65 | 0.34 | – | 9 | –
CC[C@H](Nc1nc(Cl)nc2[nH]ncc12)c1nc2c(Cl)ccc(Cl)c2c(=O)n1-c1cc[nH]n1 [Compound 82, (S)-5,8-dichloro-2-(1-((6-chloro-1H-pyrazolo[3,4-d]pyrimidin-4-yl)amino)propyl)-3-(1H-pyrazol-3-yl)quinazolin-4(3H)-one] | 4.7 | 4.1 | > 10 | – | –

Continued by falling IC50 (PI3Kβ), values first:

IC50 (PI3Kβ) [µM] | IC50 (PI3Kδ; [1]) [µM] | IC50 (PI3Kγ) [µM] | IC50 (PI3Kγ; [1]) [µM] | IC50 (PI3Kδ) [µM] | SMILES
0.097 | – | > 10 | – | 0.002 | CC[C@H](Nc1ncnc2[nH]cc(F)c12)c1nc2c(Cl)ccc(Cl)c2c(=O)n1-c1cc[nH]n1 [Compound 59, (S)-5,8-dichloro-2-(1-((5-fluoro-7H-pyrrolo[2,3-d]pyrimidin-4-yl)amino)propyl)-3-(1H-pyrazol-3-yl)quinazolin-4(3H)-one]
0.095 | 0.018 | > 10 | – | – | CC[C@H](Nc1ncnc2scnc12)c1nc2cccc(C#N)c2c(=O)n1-c1cc[nH]n1 [Compound 73, (S)-4-oxo-3-(1H-pyrazol-3-yl)-2-(1-(thiazolo[5,4-d]pyrimidin-7-ylamino)propyl)-3,4-dihydroquinazoline-5-carbonitrile]
0.044 | 0.02 | > 10 | – | – | CC[C@H](Nc1nc(N)nc(N)c1Cl)c1nc2c(F)ccc(Cl)c2c(=O)n1-c1cc[nH]n1 [Compound 68, (S)-5-chloro-2-(1-((2,6-diamino-5-chloropyrimidin-4-yl)amino)propyl)-8-fluoro-3-(1H-pyrazol-3-yl)quinazolin-4(3H)-one]
0.038 | 0.013 | > 10 | – | – | Nc1nc(N)c(Cl)c(N[C@H](c2nc3c(Cl)ccc(Cl)c3c(=O)n2-c2cc[nH]n2)C2CC2)n1 [Compound 71, (S)-5,8-dichloro-2-(cyclopropyl((2,6-diamino-5-chloropyrimidin-4-yl)amino)methyl)-3-(1H-pyrazol-3-yl)quinazolin-4(3H)-one]
0.03 | 0.014 | > 10 | – | – | Nc1nc(N)c(Cl)c(N[C@H](c2nc3c(F)ccc(Cl)c3c(=O)n2-c2cc[nH]n2)C2CC2)n1 [Compound 70, (S)-5-chloro-2-(cyclopropyl((2,6-diamino-5-chloropyrimidin-4-yl)amino)methyl)-8-fluoro-3-(1H-pyrazol-3-yl)quinazolin-4(3H)-one]
0.022 | 0.035 | > 10 | – | – | CC[C@H](Nc1nc(N)nc2[nH]nc(Br)c12)c1nc2c(C#N)cccc2c(=O)n1-c1cc[nH]n1 [Compound 80, (S)-2-(1-((6-amino-3-bromo-1H-pyrazolo[3,4-d]pyrimidin-4-yl)amino)propyl)-4-oxo-3-(1H-pyrazol-3-yl)-3,4-dihydroquinazoline-8-carbonitrile]
0.02 | 0.005 | > 10 | – | – | CC[C@H](Nc1ncnc2scnc12)c1nc2c(C#N)cccc2c(=O)n1-c1cc[nH]n1 [Compound 74, (S)-4-oxo-3-(1H-pyrazol-3-yl)-2-(1-(thiazolo[5,4-d]pyrimidin-7-ylamino)propyl)-3,4-dihydroquinazoline-8-carbonitrile]
0.018 | 0.009 | – | 4.2 | – | CC[C@H](Nc1nc(N)nc(N)c1Cl)c1nc2cccc(Cl)c2c(=O)n1-c1cc[nH]n1 [Compound 65, (S)-5-chloro-2-(1-((2,6-diamino-5-chloropyrimidin-4-yl)amino)propyl)-3-(1H-pyrazol-3-yl)quinazolin-4(3H)-one]
0.012 | 0.016 | > 10 | – | – | CC[C@H](Nc1nc(N)nc2[nH]nc(Br)c12)c1nc2c(Cl)ccc(Cl)c2c(=O)n1-c1cc[nH]n1 [Compound 81, (S)-2-(1-((6-amino-3-bromo-1H-pyrazolo[3,4-d]pyrimidin-4-yl)amino)propyl)-5,8-dichloro-3-(1H-pyrazol-3-yl)quinazolin-4(3H)-one]
0.004 | 0.0005 | – | 4 | – | C[C@H](Nc1ncnc(N)c1C#Cc1ccc(F)cn1)c1nc2cccc(Cl)c2c(=O)n1-c1cc[nH]n1 [Compound 72, (S)-2-(1-((6-amino-5-((5-fluoropyridin-2-yl)ethynyl)pyrimidin-4-yl)amino)ethyl)-5-chloro-3-(1H-pyrazol-3-yl)quinazolin-4(3H)-one]
0.001 | 0.003 | – | 5.1 | – | CC[C@H](Nc1nc(N)nc(N)c1C#N)c1nc2c(C#N)cccc2c(=O)n1-c1cc[nH]n1 [Compound 75, (S)-2-(1-((2,6-diamino-5-cyanopyrimidin-4-yl)amino)propyl)-4-oxo-3-(1H-pyrazol-3-yl)-3,4-dihydroquinazoline-8-carbonitrile]
0.0006 | 0.002 | – | 6.3 | – | CC[C@H](Nc1nc(N)nc(C)c1C#N)c1nc2c(C#N)cccc2c(=O)n1-c1cc[nH]n1 [Compound 76, (S)-2-(1-((2-amino-5-cyano-6-methylpyrimidin-4-yl)amino)propyl)-4-oxo-3-(1H-pyrazol-3-yl)-3,4-dihydroquinazoline-8-carbonitrile]
